Assay results taken from patent publication US20240165129A1, “METHODS OF TREATING PAIN AND DEPRESSION” (priority 2022, published 2024).

These compounds were tested on primary cultured mouse cortical neurons. Conditions: 10 μM, pH 6.0, n=8.

With CC(C)CCC[C@@H](C)[C@H]1CC[C@H]2[C@@H]3C[C@@H]4O[C@@]45C[C@@H](O)CC[C@]5(C)[C@H]3CC[C@]12C [5α,6α-epoxy-Chol, 5α,6α-epoxycholesterol] as the compound, how does the “protection against acid-induced neuronal injury (LDH release), analogs” value (“protection … analogs” below) read?
The value was “none of them shows significant protection”.

For CC(C)CCC[C@@H](C)[C@H]1CC[C@H]2[C@@H]3C[C@H]4O[C@]45C[C@@H](O)CC[C@]5(C)[C@H]3CC[C@]12C [5β,6β-epoxy-Chol, 5β,6β-epoxycholesterol], which “protection … analogs” value is on record?
The value was “none of them shows significant protection”.

Which “protection … analogs” value does the source give for C[C@@]12CCC[C@H]1[C@@H]1C[C@@H](O)[C@@]3(O)C[C@@H](O)CC[C@]3(C)[C@H]1CC2 [Andro-triol, 5α-androst-3β, 5, 6β-triol] here?
Its value is “none of them shows significant protection”.
